Results from PMC12649549, “Sequence Permutation Generated Lysine and Tryptophan-Rich Antimicrobial Peptides with Enhanced Therapeutic Index” (Antibiotics, 2025).
Like-named read-outs stand apart in the source and are kept apart here.

How the values were obtained:
[1] = test system: Pseudomonas aeruginosa Migula (ATCC 27853)
Method in brief: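 MICs came from CLSI broth microdilution, with 5 × 10^5 CFU/mL bacteria exposed to peptide at final 0.78–50 µg/mL. Media were MH broth or LYM broth (pH 7.4), the latter also adjusted for salt (NaCl 50–300 mM, MgCl2 0.5–2.5 mM) or acidity (pH 4.5–6.5); triplicate independent experiments.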

[2] = test system: S. aureus ATCC 33592
Procedure: The antibacterial and salt-resistant activity of the peptides was tested using Escherichia coli (ATCC 25922), Pseudomonas aeruginosa Migula (ATCC 27853), Acinetobacter sp. (BCRC number 14B0091, BCRC number 14B0097, and BCRC number 14B0100), and Staphylococcus aureus sp. strains (ATCC 25923, ATCC 33591, ATCC 33592, ATCC 33593, and ATCC 6538). All bacteria were obtained from the Food Industry Research and Development Institute (Hsinchu, Taiwan) and cultured in sterilized Müller-Hinton (MH) broth at 37 °C and 200 rpm for 8 h. The inoculum concentrations were determined by measuring the optical density at 600 nm (OD 600 = 1, approximately 10^8 CFU/mL) using an Ultrospec 2100 pro UV-Visible spectrophotometer (Biochrom Ltd., Cambridge, UK) after 8 h of culture.
The antibacterial activities of the peptides in Müller-Hinton (MH) broth and modified LYM broth were determined using the standard broth microdilution method as per Clinical and Laboratory Standards Institute (CLSI) guidelines. The LYM broth was prepared with specific components and adjusted to different conditions, including varying concentrations of NaCl and MgCl2, and different pH levels. To prepare the LYM broth, 5.4 mM KCl, 5.6 mM Na2HPO4, 0.5 mM MgSO4, and 1.0 mM sodium citrate were added. Additionally, 0.4 mg of ZnCl2, 2.0 mg of FeCl3·6H2O, 0.1 mg of CuSO4·5H2O, 0.1 mg of MnSO4·H2O, 0.1 mg of Na2B4O7∙10H2O, 700 mg of amino acid mixtures without tryptophan (Takara Bio Inc., San Jose, CA, USA), and 20 mg of L-tryptophan were added per liter of medium. The pH was adjusted to 7.4, and a vitamin mixture (100X, Sigma) and glucose concentration of 2% were added. […] Bacterial strains were incubated in MH broth overnight, regrown, and diluted to a final concentration of 5 × 10^5 CFU/mL. Peptides were added to each well at final concentrations of 50, 25, 12.5, 6.25, 3.13, 1.56, and 0.78 µg/mL, and 99 µL of diluted microbes was loaded into each well of a polypropylene 96-well plate. […] The Morpheus HeatMap software (https://software.broadinstitute.org/morpheus/) was used to display MIC values on a color scale. All experiments were independently repeated three times.

[3] = test system: Gram-negative bacteria; experiment: Geometric mean MIC and therapeutic index, Gram-negative bacteria; type: cell-based; settings: Gram-negative bacteria; for GM G− (geometric mean of the MIC values): MH broth, MIC >50 µg/mL counted as 100 µg/mL; for Therapeutic Index (TI) G−: HC10/GM
Procedure: (§1) In this study, we aimed to investigate the potential of W5K series peptides for therapeutic use. To evaluate their efficacy for antibacterial therapy, we used the Therapeutic Index (TI) as a measure of their cell selectivity. The TI was calculated as the ratio of the concentration causing 10% hemolysis of human red blood cells (HC10) to the geometric mean minimum inhibitory concentration (GM) of the peptides against both Gram-negative and Gram-positive bacteria. This parameter was used to quantitatively assess the balance between antibacterial potency and cytotoxicity among the W5K derivatives.
(§2) The antibacterial activities of the peptides in Müller-Hinton (MH) broth and modified LYM broth were determined using the standard broth microdilution method as per Clinical and Laboratory Standards Institute (CLSI) guidelines. The LYM broth was prepared with specific components and adjusted to different conditions, including varying concentrations of NaCl and MgCl2, and different pH levels. To prepare the LYM broth, 5.4 mM KCl, 5.6 mM Na2HPO4, 0.5 mM MgSO4, and 1.0 mM sodium citrate were added. Additionally, 0.4 mg of ZnCl2, 2.0 mg of FeCl3·6H2O, 0.1 mg of CuSO4·5H2O, 0.1 mg of MnSO4·H2O, 0.1 mg of Na2B4O7∙10H2O, 700 mg of amino acid mixtures without tryptophan (Takara Bio Inc., San Jose, CA, USA), and 20 mg of L-tryptophan were added per liter of medium. The pH was adjusted to 7.4, and a vitamin mixture (100X, Sigma) and glucose concentration of 2% were added. For different conditions of LYM broth, NaCl concentrations of 300, 200, 150, and 50 mM, MgCl2 concentrations of 2.5, 1.5, and 0.5 mM, and pH levels of 6.5, 5.5, and 4.5 were adjusted. Bacterial strains were incubated in MH broth overnight, regrown, and diluted to a final concentration of 5 × 10^5 CFU/mL. Peptides were added to each well at final concentrations of 50, 25, 12.5, 6.25, 3.13, 1.56, and 0.78 µg/mL, and 99 µL of diluted microbes was loaded into each well of a polypropylene 96-well plate. […] The Morpheus HeatMap software (https://software.broadinstitute.org/morpheus/) was used to display MIC values on a color scale. All experiments were independently repeated three times.

[4] = test system: Gram-positive bacteria; experiment: Geometric mean MIC and therapeutic index, Gram-positive bacteria; type: cell-based; settings: Gram-positive bacteria; for GM G+ (geometric mean of the MIC values): MH broth, MIC >50 µg/mL counted as 100 µg/mL; for Therapeutic Index (TI) G+: HC10/GM
Procedure: as §1, §2

[5] = test system: Both Gram-positive and -negative bacteria; experiment: Geometric mean MIC, therapeutic index and fold changes of MIC, whole panel of strains; type: cell-based; settings: for GM G−/+ (geometric mean of the MIC values): Both Gram-positive and -negative bacteria, MIC >50 µg/mL counted as 100 µg/mL; for Therapeutic Index (TI) G−/+: HC10/GM, both Gram-positive and -negative bacteria
Procedure: as §1, §2

[6] = LYM broth, 0 mM NaCl, 16 h, 37 °C
[7] = LYM broth, 50 mM NaCl, 16 h, 37 °C
[8] = LYM broth, 100 mM NaCl, 16 h, 37 °C
[9] = LYM broth, 200 mM (NaCl), 16 h, 37 °C
[10] = LYM broth, 300 mM (NaCl), 16 h, 37 °C
[11] = MH broth, 5 × 10^5 CFU/mL, 16 h, 37 °C, repeated three times

| Substance | MIC [1, 6] | MIC ([1]; LYM broth, 0.5 mM MgCl2) | MIC ([1]; LYM broth, 1.5 mM MgCl2) | MIC ([1]; LYM broth, 2.5 mM MgCl2) | MIC [1, 7] | MIC [1, 8] | MIC [1, 9] | MIC [1, 10] | MIC ([1]; LYM broth, pH 4.5) | MIC ([1]; LYM broth, pH 5.5) | MIC ([1]; LYM broth, pH 6.5) | MIC [1, 11] | MIC [2, 6] | MIC ([2]; LYM broth, 0.5 mM MgCl2) | MIC ([2]; LYM broth, 1.5 mM MgCl2) | MIC ([2]; LYM broth, 2.5 mM MgCl2) | MIC [2, 7] | MIC [2, 8] | MIC [2, 9] | MIC [2, 10] | further results |
| --- | --- | --- | --- | --- | --- | --- | --- | --- | --- | --- | --- | --- | --- | --- | --- | --- | --- | --- | --- | --- | --- |
| Ac-WRKWLKWLAKKKK-NH2 [Peptide W5K02] | 6.25 µg/mL | 6.25 µg/mL | 6.25 µg/mL | 6.25 µg/mL | 6.25 µg/mL | 25 µg/mL | >50 µg/mL | >50 µg/mL | 3.13 µg/mL | 3.13 µg/mL | 3.13 µg/mL | 25 µg/mL | 6.25 µg/mL | 6.25 µg/mL | 6.25 µg/mL | 6.25 µg/mL | 6.25 µg/mL | 12.5 µg/mL | 50 µg/mL | >50 µg/mL | MIC ([2]; LYM broth, pH 4.5): 6.25 µg/mL; MIC ([2]; LYM broth, pH 5.5): 6.25 µg/mL; MIC ([2]; LYM broth, pH 6.5): 6.25 µg/mL; MIC [2, 11]: 25 µg/mL; GM G− (geometric mean of the MIC values) [3]: 7.2 µg/mL; Therapeutic Index (TI) G− [3]: 2.3; GM G+ (geometric mean of the MIC values) [4]: 21.8 µg/mL; Therapeutic Index (TI) G+ [4]: 0.8; GM G−/+ (geometric mean of the MIC values) ([5]; MH broth): 12.5 µg/mL; Therapeutic Index (TI) G−/+ [5]: 1.3; weakening of bactericidal efficacy (MIC) ([5]; LYM broth, 2.5 mM MgCl2): 4 fold; folds higher MIC values than W5KA9W ([5]; MH broth, in most bacteria strains): 2–8 fold |
| Ac-LAKKKKWRKWLKW-NH2 [Peptide W5K09] | 3.13 µg/mL | 6.25 µg/mL | 6.25 µg/mL | 12.5 µg/mL | 6.25 µg/mL | 12.5 µg/mL | 50 µg/mL | >50 µg/mL | 6.25 µg/mL | 3.13 µg/mL | 3.13 µg/mL | 25 µg/mL | 25 µg/mL | 25 µg/mL | 25 µg/mL | 50 µg/mL | 25 µg/mL | 50 µg/mL | 50 µg/mL | >50 µg/mL | MIC ([2]; LYM broth, pH 4.5): 25 µg/mL; MIC ([2]; LYM broth, pH 5.5): 12.5 µg/mL; MIC ([2]; LYM broth, pH 6.5): 12.5 µg/mL; MIC [2, 11]: >50 µg/mL; GM G− (geometric mean of the MIC values) [3]: 33.0 µg/mL; Therapeutic Index (TI) G− [3]: 3.3; GM G+ (geometric mean of the MIC values) [4]: 75.8 µg/mL; Therapeutic Index (TI) G+ [4]: 1.4; GM G−/+ (geometric mean of the MIC values) ([5]; MH broth): 50.0 µg/mL; Therapeutic Index (TI) G−/+ [5]: 2.2 |
| Ac-KWLAKKKKWRKWL-NH2 [Peptide W5K07] | 6.25 µg/mL | 12.5 µg/mL | 12.5 µg/mL | 25 µg/mL | 12.5 µg/mL | 25 µg/mL | >50 µg/mL | >50 µg/mL | 12.5 µg/mL | 6.25 µg/mL | 3.13 µg/mL | 50 µg/mL | 25 µg/mL | 25 µg/mL | 25 µg/mL | 25 µg/mL | 25 µg/mL | 50 µg/mL | >50 µg/mL | >50 µg/mL | MIC ([2]; LYM broth, pH 4.5): 25 µg/mL; MIC ([2]; LYM broth, pH 5.5): 25 µg/mL; MIC ([2]; LYM broth, pH 6.5): 12.5 µg/mL; MIC [2, 11]: >50 µg/mL; GM G− (geometric mean of the MIC values) [3]: 21.8 µg/mL; Therapeutic Index (TI) G− [3]: 5.0; GM G+ (geometric mean of the MIC values) [4]: 87.1 µg/mL; Therapeutic Index (TI) G+ [4]: 1.2; GM G−/+ (geometric mean of the MIC values) ([5]; MH broth): 43.5 µg/mL; Therapeutic Index (TI) G−/+ [5]: 2.5 |
